From article PMC3914206

Assays:
Type in all cases: binding
[1] = target: T1, panel of 442 kinases (Plasmodium falciparum, UniProt P61075); conditions: Compound Concentration 10 µM
T1 construct: purchased KINOMEscan
Text: (§1) We assessed the selectivity of members of this scaffold using the KINOMEscan methodology across a near comprehensive panel of 442 kinases [[18,27]].

[2] = target: T2, panel of 442 kinases (Homo sapiens, UniProt P36897); conditions: kinase TGFBR1; compound concentration 10 µM
T2 construct: purchased KINOMEscan
T2 sequence (P36897 34-503): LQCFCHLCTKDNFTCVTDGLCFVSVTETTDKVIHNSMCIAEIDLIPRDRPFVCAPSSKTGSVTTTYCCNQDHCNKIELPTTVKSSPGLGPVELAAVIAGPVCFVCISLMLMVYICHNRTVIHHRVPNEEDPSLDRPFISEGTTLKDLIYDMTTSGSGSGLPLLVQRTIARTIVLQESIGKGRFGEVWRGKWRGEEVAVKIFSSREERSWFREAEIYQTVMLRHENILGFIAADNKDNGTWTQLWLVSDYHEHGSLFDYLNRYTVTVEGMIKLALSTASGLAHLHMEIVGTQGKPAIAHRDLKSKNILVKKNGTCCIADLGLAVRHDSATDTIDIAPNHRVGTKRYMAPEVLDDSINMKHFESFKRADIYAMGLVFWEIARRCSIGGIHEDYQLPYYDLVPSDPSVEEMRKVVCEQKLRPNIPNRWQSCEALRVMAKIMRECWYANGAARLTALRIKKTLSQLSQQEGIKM
Text: as §1

[3] = target: T3, panel of 442 kinases (Homo sapiens, UniProt Q9BUB5); conditions: Compound Concentration 10 µM
T3 construct: purchased KINOMEscan
Text: as §1

T3 sequence (Q9BUB5 whole entry): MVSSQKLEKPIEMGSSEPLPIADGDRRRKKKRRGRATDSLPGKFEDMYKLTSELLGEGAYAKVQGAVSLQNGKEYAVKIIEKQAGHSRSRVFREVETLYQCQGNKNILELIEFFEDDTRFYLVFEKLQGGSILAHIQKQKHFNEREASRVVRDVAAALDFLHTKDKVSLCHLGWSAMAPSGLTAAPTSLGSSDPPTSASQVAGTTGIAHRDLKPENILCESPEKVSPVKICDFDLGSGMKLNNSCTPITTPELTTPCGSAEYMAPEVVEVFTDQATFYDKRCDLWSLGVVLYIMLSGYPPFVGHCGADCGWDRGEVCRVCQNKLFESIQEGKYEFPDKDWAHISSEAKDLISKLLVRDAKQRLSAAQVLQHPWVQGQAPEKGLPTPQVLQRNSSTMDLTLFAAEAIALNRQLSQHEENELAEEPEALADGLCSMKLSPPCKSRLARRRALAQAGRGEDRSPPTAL
T1 sequence (P61075 whole entry): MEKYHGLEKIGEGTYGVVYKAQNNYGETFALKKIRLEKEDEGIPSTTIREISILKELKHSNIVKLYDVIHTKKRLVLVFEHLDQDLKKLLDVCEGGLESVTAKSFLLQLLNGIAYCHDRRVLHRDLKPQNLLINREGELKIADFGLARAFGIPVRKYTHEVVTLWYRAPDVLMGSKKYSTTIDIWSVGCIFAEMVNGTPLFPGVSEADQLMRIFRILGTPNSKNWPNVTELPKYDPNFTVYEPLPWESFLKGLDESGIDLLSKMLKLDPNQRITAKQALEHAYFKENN

Structure (SMILES) | KINOMEscan: PFPK5(P.falciparum) [1] | % Ctrl, TGFBR1 [2] | KINOMEscan: MKNK1 [3]
COc1cc(C(=O)N2CCC(N3CCN(C)CC3)CC2)ccc1Nc1ncc2c(n1)N(C1CCCC1)c1ccccc1C(=O)N2C [Compound 25, 11-cyclopentyl-2-((2-methoxy-4-(4-(4-methylpiperazin-1-yl)piperidine-1-carbonyl)phenyl)amino)-5-methyl-5H-benzo[e]pyrimido[5,4-b][1,4]diazepin-6(11H)-one] | 85 | 98 % Ctrl | 100
CCOc1cc(C(=O)N2CCC(N3CCN(C)CC3)CC2)ccc1Nc1ncc2c(n1)N(C1CCCC1)c1ccccc1C(=O)N2C [Compound 26] | 100 | 100 % Ctrl | 96
COc1cc(C(=O)N2CCC(N3CCN(C)CC3)CC2)ccc1Nc1ncc2c(n1)N1CCc3cccc(c31)C(=O)N2C [Compound 24] | 92 | 100 % Ctrl | –
COc1cc(C(=O)N2CCC(N3CCN(C)CC3)CC2)ccc1Nc1ncc2c(n1)N(C)c1ccccc1C(=O)N2C [15 (LRRK2-IN-1)] | 100 | 100 % Ctrl | 50
